A value given as a limit tells only on which side of the number the result lay.

IC50 data for 19 compounds are collected here from EP4455142A1, “NOVEL INHIBITOR OF QPCTL AND/OR QC” (Scenic Immunology B.V., priority 2023, dated 2024).

One test concerns the target T1, human isoQC (Homo sapiens, UniProt Q9NXS2).
T1 construct: The Golgi luminal, enzymatically active region of human isoQC (S53-L382; see, e.g., Huang et al., 2011); GST (with enterokinase site) (N, cleaved yes); made in house; host or cells: E. coli
As to the kind of experiment: Assay 1 - isoQC potency, fluorescent enzymatic assay (H-Gln-AMC, coupled pGAPase detection). It counts as biochemical. To be noted: recombinant isoQC, 1 hour at 37°C. From the text:
The Golgi luminal, enzymatically active region of human isoQC (S53-L382; see, e.g., Huang et al., 2011) was obtained by expression in E. coli of an N-terminally GST Enterokinase and C-terminally 6xHis tagged construct in the pET41(+) vector and subsequent purification using Ni-NTA IMAC. Enterokinase digestion ensued, followed by another Ni-NTA IMAC purification, Superdex75 based size exclusion and finally a spin concentration using a 10 kDa molecular weight cutoff. The final protein is formulated in 50 mM Tris-HCl, 150 mM NaCl, 50% Glycerol, pH 7.8.
(§1) Pyroglutamylation was measured by conversion of glutamine-4-amino-7-methylcoumarine (H-Gln-AMC, Bachem) to pyroglutamyl-AMC, which is subsequently a specific substrate for pyroglutamylaminopeptidase (pGAPase, Qiagen), releasing free AMC which can be fluorescently detected. For a typical inhibition assay, 7.5 µL aliquots of threefold dilutions of test compound in 50mM Tris pH8 buffer were plated in 384-well plates. 15 µL 20 µM hGln-AMC (diluted from a 40 mM stock dissolved in 25 mM HEPES using 50 mM Tris-HCl 25 pH 8.0) was added to each well. Finally, 7.5 µL, 3 ng/µL recombinant isoQC enzyme was added and the reaction mixture was incubated for 1 hour at 37°C. A 5 minute incubation at 98°C was then performed to denature the isoQC enzyme and stop the reaction.
To detect the amount of pyroglutamyl-AMC formed, a 0.125 U/mL pGAPase enzyme diluted in 50 mM Tris-HCl pH 8.0 containing 10 mM dithiothreitol (DTT) solution was prepared. 25 µL of the pyroglutamylation reaction mixture was transferred into an empty plate and to that, 25 µL of the pGAPase enzyme solution was added. Plates were then incubated for 25 minutes at room temperature before fluorescence readings were taken on an Envision2 plate reader with excitation set at 380 nm and emission at 450 nm. DMSO concentrations during the assay never exceeded 1% and activities were compared to controls containing only the same amount of DMSO and no test compound. Controls were taken along containing pyroglutamylated-AMC (Bachem, dissolved at 10 mM in DMSO) instead of H-Gln-AMC to control for pGAPase inhibition.
(§2) IC50 values are calculated using non-linear regression analysis with GraphPad Prism software.

In another test the target is T2, recombinant QC enzyme (Homo sapiens, UniProt Q16769).
T2 construct: bacterial expression of residues 33-361 of uniprot ID Q16769, fused to a His tag; His tag (cleaved yes); made in house
Kind of test: Assay 2 - QC potency, fluorescent enzymatic assay (H-Gln-AMC, coupled pGAPase detection). It counts as biochemical. To be noted: 1 hour at 37°C. Here is the method: After scale-up, expression and lysis, protein was purified by Ni-NTA IMAC, dialysed in the presence of Factor Xa, further purified by Ni-NTA reverse IMAC and finally filtrated for size on a Superdex 200 16/60 column. Final protein was concentrated using a spin concentrator at 10 kDa molecular weight cut-off and formulated in 150 mM NaCl, 50 mM Tris-HCl, 50% Glycerol, pH 8.0.
as §1, with “50 mM” for “50mM”, “h-Gln-AMC” for “hGln-AMC”, “Tris-HCl” for “Tris-HCl 25”, “QC” for “isoQC”
25 µL of the pyroglutamylation reaction mixture was transferred into an empty plate and to that, 25 µL of the pGAPase enzyme solution was added. Plates were then incubated for 25 minutes at room temperature before fluorescence readings were taken on an Envision2 plate reader with excitation set at 380 nm and emission at 450 nm.
Controls were taken along containing pyroglutamylated-AMC (Bachem, dissolved at 10 mM in DMSO) instead of H-Gln-AMC to control for pGAPase inhibition.
as §2

In a further test the test system is pyroglutamylated CD47. Kind of test: Assay 3 - cell-based potency assay (pyroglutamylation in live cells, total CD47/pE-CD47 dual staining, FACS). Also noted: species or system human. To be noted: IC50 of CC2C6 signal, KBM7 cells, 72 hours incubation. Here is the method:
Cells were spun for 4 minutes at 1500 rpm and washed once with PBS / 0.5% BSA. Cells were spun down again and the supernatant was removed and incubated in 100 uL antibody staining solution (PBS / 0.5% BSA / 0.1 µg/mL DAPI (4',6-diamidino-2-phenylindole, ThermoFisher Scientific) and a mixture of 1:500 FITC-conjugated anti-human CD47 clone 2D3, which recognizes total CD47 irrespective of its pyroglutamylation state, and 1:500 Alexa647-conjugated anti-human CD47 clone CC2C6, which specifically detects pyroglutamylated CD47) for 2 hours at 4°C. Next, the cells were spun down and washed twice with 2 x 150 µL PBS / 0.5% BSA to remove unbound antibody. Cells were again spun down and taken up in 300 µL FACS buffer before analysis on a Celesta FACS machine (BD Biosciences).
KBM7 cells (Kotecki et al., 1999) were infected with lentivirus produced by transfecting pSCNC-LentiCRISPR-QPCTL or pSCNC-LentiCRISPR-CD47 into HEK-293T cells according to standard protocols. After 24 hours incubation, cells were selected with puromycin (Invivogen, 1 µg/mL) for 48 hours. Cells were stained for total CD47 and pE-CD47 and QPCTL k.o. cells were sorted out as negative for pE-CD47, and CD47 k.o. cells as negative for total CD47, using a FACSAria III and FACS Diva software (BD Biosciences).
In order to test compounds for their effect on pyroglutamylation in live cells, 25000 KBM7 cells per well were seeded in a 96-well U-bottom plate in 150 µl IMDM / 10% FCS / 1% Pen / Strep medium and a 10-point 2-fold dilution range of test compounds. After 72 hours incubation at 37°C, 5% COz, cells were stained for total CD47 and pE-CD47 and analysed on a BD Celesta using FACS Diva software (BD Biosciences). Cells gated for DAPI negativity were recorded and the median fluorescence intensity (MFI) of each sample was transformed to linearly scale between the MFI's of wildtype and CD47 knockout cells (in case of the 2D3 antibody) and the wildtype and QPCTL knockout cells (in case of the CC2C6 antibody). ICso's were calculated by 3 parameter logistic regression of the CC2C6 signal vs. compound concentration, where the top of the sigmoidal curve was fixed at 1, using R and the drc package (http://www.r-project.org, https://cran.r-project.org/web/packages/drc/index.html).

T1 sequence (Q9NXS2 53-382): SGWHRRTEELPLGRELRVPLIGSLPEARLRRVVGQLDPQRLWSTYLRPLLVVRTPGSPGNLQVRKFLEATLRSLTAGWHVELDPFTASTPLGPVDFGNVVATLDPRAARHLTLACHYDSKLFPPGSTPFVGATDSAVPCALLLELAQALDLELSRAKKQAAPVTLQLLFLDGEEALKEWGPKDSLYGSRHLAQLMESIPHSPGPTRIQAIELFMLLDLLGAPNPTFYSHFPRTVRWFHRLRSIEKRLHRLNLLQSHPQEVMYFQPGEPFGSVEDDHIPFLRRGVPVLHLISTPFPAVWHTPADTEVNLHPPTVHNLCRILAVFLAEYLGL
T2 sequence (Q16769 33-361): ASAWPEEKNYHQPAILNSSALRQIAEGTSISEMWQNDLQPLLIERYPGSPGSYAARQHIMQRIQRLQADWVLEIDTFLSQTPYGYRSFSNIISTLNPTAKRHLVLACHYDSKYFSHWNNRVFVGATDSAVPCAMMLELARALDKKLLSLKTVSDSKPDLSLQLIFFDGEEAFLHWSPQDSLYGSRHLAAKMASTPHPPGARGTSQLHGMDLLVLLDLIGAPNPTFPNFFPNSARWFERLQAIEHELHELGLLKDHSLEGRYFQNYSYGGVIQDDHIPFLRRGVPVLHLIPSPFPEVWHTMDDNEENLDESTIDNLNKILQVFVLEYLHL

As to `O=C1OCC(c2cc(F)cc(C(F)(F)F)c2)N1c1ccc2[nH]cnc2c1` (racemic) [(17)-Rac, reference compound], the IC50 was 1200 nM at human isoQC; 1730 nM on recombinant QC enzyme; more than 50000 nM with pyroglutamylated CD47 (Homo sapiens, KBM-7, 72 h).
As to `O=C1OCC(c2ccc(N3CCCC3)cc2)N1c1ccc2[nH]cnc2c1` (racemic) [(18)-Rac, reference compound], the IC50 came to 48.4 nM at human isoQC; 49.1 nM at recombinant QC enzyme; 8510 nM with pyroglutamylated CD47 (Homo sapiens, KBM-7, 72 h).
Consider `O=C1OCC(c2ccc(C3CCC(F)(F)CC3)cc2)N1c1ccc2[nH]cnc2c1` (racemic) [(19)-Rac, reference compound], for which the concentration for half-maximal inhibition (IC50) at human isoQC was determined as 63.7 nM; in the test with pyroglutamylated CD47 (Homo sapiens, KBM-7, 72 h) it was 10400 nM.
On to `O=C1OCC(c2cc(F)cc(C(F)(F)F)c2)N1c1ccc2[nH]cnc2c1` (single isomer, unassigned) [(17)-ent1, reference compound], for which the 50% inhibitory concentration (IC50) on human isoQC was 10900 nM; on recombinant QC enzyme, more than 10000 nM; with pyroglutamylated CD47 (Homo sapiens, KBM-7, 72 h), more than 50000 nM.
`O=C1OCC(c2ccc(N3CCCC3)cc2)N1c1ccc2[nH]cnc2c1` (single isomer, unassigned) [(18)-ent1, reference compound]: the half-inhibitory concentration (IC50) on human isoQC was 1170 nM; at recombinant QC enzyme, 2530 nM; in the test on pyroglutamylated CD47, more than 50000 nM.
For `O=C1OCC(c2ccc(C3CCC(F)(F)CC3)cc2)N1c1ccc2[nH]cnc2c1` (single isomer, unassigned) [(19)-ent1, reference compound], the results for the IC50 at human isoQC and in the test on pyroglutamylated CD47 were 1240 nM and more than 12500 nM, respectively.
Turning to `O=C1OC[C@H](c2ccc(-c3cnn(C(F)(F)F)c3)c(F)c2F)N1c1ccc2[nH]cnc2c1` [(2)], the IC50 at human isoQC stood at 4 nM; at recombinant QC enzyme, 38.9 nM; in the test on pyroglutamylated CD47 (Homo sapiens, KBM-7, 72 h), 106 nM.
The corresponding values for `O=C1OC[C@H](c2ccc(-c3ccn(C(F)(F)F)n3)cc2F)N1c1ccc2[nH]cnc2c1` [(5)] are 7.7 nM, 34.7 nM and 659 nM.
In the case of `O=C1OC[C@H](c2ccc(-c3cnn(C(F)(F)F)n3)cc2F)N1c1ccc2[nH]cnc2c1` [(6)], the IC50 at human isoQC was 3 nM; at recombinant QC enzyme it was 15.1 nM.
On to `O=C1OC[C@H](c2ccc(-c3ccc(C(F)(F)F)o3)cc2F)N1c1ccc2[nH]cnc2c1` [(7)], for which the half-maximal inhibitory concentration (IC50) at human isoQC worked out at 10 nM; at recombinant QC enzyme it was 70.1 nM; in the test with pyroglutamylated CD47 (Homo sapiens, KBM-7, 72 h), 503 nM.
Take `O=C1OC[C@H](c2ccc(-c3ccc(C(F)(F)F)s3)cc2F)N1c1ccc2[nH]cnc2c1` [(8)]: the IC50 at human isoQC is 13.4 nM; at recombinant QC enzyme, 86 nM; with pyroglutamylated CD47 (Homo sapiens, KBM-7, 72 h), 526 nM.
Regarding `O=C1OC[C@H](c2ccc(-c3nc(C(F)(F)F)cs3)cc2F)N1c1ccc2[nH]cnc2c1` [(9)], the half-inhibitory concentration (IC50) at human isoQC came to 9 nM; on recombinant QC enzyme it was 36.1 nM; with pyroglutamylated CD47 (Homo sapiens, KBM-7, 72 h) it was 622 nM.
Consider `O=C1OC[C@H](c2ccc(-c3noc(C(F)(F)F)n3)cc2F)N1c1ccc2[nH]cnc2c1` [(10)], for which the results for the half-inhibitory concentration (IC50) at human isoQC and at recombinant QC enzyme were 12.6 nM and 48.2 nM, respectively.
Consider `O=C1OC[C@H](c2ccc(-c3cc(C(F)(F)F)no3)cc2F)N1c1ccc2[nH]cnc2c1` [(11)], for which the half-inhibitory concentration (IC50) is 5.2 nM at human isoQC; 24.3 nM at recombinant QC enzyme; 252 nM in the test on pyroglutamylated CD47 (Homo sapiens, KBM-7, 72 h).
For the compound `O=C1OC[C@H](c2ccc(-c3cnn(C(F)F)c3)cc2F)N1c1ccc2[nH]cnc2c1` [(12)], the IC50 amounted to 3.3 nM on human isoQC; 7.5 nM at recombinant QC enzyme; 157 nM in the test on pyroglutamylated CD47 (Homo sapiens, KBM-7, 72 h).
Turning to `O=C1OC[C@H](c2ccc(-c3cnn(CF)c3)cc2F)N1c1ccc2[nH]cnc2c1` [(13)], the half-inhibitory concentration (IC50) at human isoQC came out at 4 nM; at recombinant QC enzyme, 11.3 nM; with pyroglutamylated CD47 (Homo sapiens, KBM-7, 72 h) it was 401 nM.
Turning to `O=C1OC[C@H](c2ccc(-c3cnn(C4CC4(F)F)c3)cc2F)N1c1ccc2[nH]cnc2c1` (stereo partly drawn) [(14)], the IC50 was 3.6 nM at human isoQC and 12.7 nM on recombinant QC enzyme.
On to `O=C1OC[C@H](c2ccc(-c3cnn(CC(F)F)c3)cc2F)N1c1ccc2[nH]cnc2c1` [(15)], for which the 50% inhibitory concentration (IC50) at human isoQC was determined as 2.7 nM; at recombinant QC enzyme, 8 nM; in the test with pyroglutamylated CD47 (Homo sapiens, KBM-7, 72 h), 155 nM.
For the compound `O=C1OC[C@H](c2ccc(-c3cnn(C4CC(F)(F)C4)c3)cc2F)N1c1ccc2[nH]cnc2c1` [(16)], the half-inhibitory concentration (IC50) on human isoQC is 5.1 nM; at recombinant QC enzyme, 9.4 nM.

For orientation: IC50 means the midpoint of a concentration-inhibition curve.
